Data taken from patent US20200370045A1, “METHOD OF TREATING TYPE II DIABETES AND OBESITY AND METHOD OF SCREENING A MEDICAMENT FOR THE SAME” (Tsinghua University, priority 2017, published 2020).

Tests used:
Type in all cases: in vivo
microRNA-708 [1] = test: Insulin tolerance test (ITT) in obese mice treated with antisense nucleic acid of microRNA-708; conditions: 2-month old obese mice fed with HFD for two months; subcutaneously injected at 10 D/g weekly for four weeks; FIG. 15
Protocol: (§1) As obesity is closely related to type II diabetes, the present inventors also examined the role of microRNA-708 in insulin sensitivity, where insulin tolerance test (ITT) and glucose tolerance test (GTT) were adopted. ITTs of the microRNA-708 knockout mice were assayed 0, 15, 30, 60, and 90 min after an intraperitoneal injection of insulin (diluted as 0.5 U/ml in saline and dosed at 0.5-1.2 U insulin per kg body mass, e.g., 0.5 U insulin per kg body mass, […]) following a 4 h fast. GTTs of the microRNA-708 knockout mice were assayed 0, 15, 30, 60, and 90 min after an intraperitoneal injection of glucose (diluted as 20% glucose solution in saline and dosed at 0.5-2 g glucose per kg body mass, e.g., 1 g glucose per kg body mass) following overnight fast.
(§2) A designed RNA sequence ([…] (SEQ ID NO: 2)), reverse complementary to microRNA-708, was subcutaneously injected at 10 D/g to 2-month old obese mice (fed with HFD for two months) weekly for four weeks.

microRNA-708 [2] = test: Obesity level of HFD-fed obese mice treated with antisense nucleic acid of microRNA-708; conditions: 2-month old obese mice fed with HFD for two months; subcutaneously injected at 10 D/g weekly for four weeks; FIG. 13
From the text: as §2

microRNA-708 [3] = test: Glucose tolerance test (GTT) in obese mice treated with antisense nucleic acid of microRNA-708; conditions: obese mice treated with antisense nucleic acids; FIG. 14
Protocol: as §1, §2

Sequence: CCCAGCUAGACUUGUAAGUCCUU [SEQ ID NO: 2]
- insulin tolerance symptoms (insulin resistance) (microRNA-708 [1]): significantly alleviated
- obesity levels (microRNA-708 [2]): declined distinctly
- glucose tolerance (microRNA-708 [3]): obvious relieved
